Measured values reported in US5668133A, “Ophthalmic compositions comprising emedastine and methods for their use” (priority 1995, dated 1997).

Legend:
[1] = tested on: histamine-induced vascular permeability in guinea pig conjunctiva; experiment: histamine-induced vascular permeability in guinea pig conjunctiva, topical ocular pretreatment; format: in vivo, guinea pig (Male Dunkin Hartley)
Procedure: The topical ocular antihistaminic effect of emedastine difumarate was assessed in a model of histamine induced vascular permeability in guinea pig conjunctiva. The potency of emedastine difumarate in this model was then compared with those of reference antihistamines.
Male Dunkin Hartley Viral Antibody Free outbred guinea pigs (Charles River Labs, Portage, Mich.), weighing approximately 250-350 grams (6/group) were injected intravenously (i.v.) via the marginal ear vein with 1.0 mL of Evans Blue dye (1.0 mg/mL). Forty-five (45) minutes post dye injection, 20 μL of test compound or saline vehicle was applied topically to one eye of each experimental animal. […] Responses were quantitated as described by Yanni et al. in Int. Arch. Allergy Immunol., 101:102-106 (1993). Response scores from the treated groups were then compared with scores obtained in the saline-treated group using Dunnett's t test (Dunnett C. W., "A multiple comparison procedure for comparing treatments with a control." J. Am. Stat. Assoc. 50:1096-1121(1955)). Regression analysis was used to determine relative potency (Bliss, C. and E. Gjorgy. In Vitamin Methods, Vol. 2, pp. 445-610, Academic Press, Inc., New York, 1951.).

allergic conjunctivitis = conditions: without the addition of a vasoconstrictor; cited from earlier work
[2] = as compared to systemic activity; cited from earlier work
[3] = 1 min pretreatment, relative to emedastine difumarate = 1.0, (95% Confidence Limits)
[4] = 30 min pretreatment, relative to emedastine difumarate = 1.0, (95% Confidence limits)
[5] = 1 min pretreatment, 0.001 wt %, ketotifen/pheniramine experiment (NaCl 276 ± 10)
[6] = 1 min pretreatment, 0.01 wt %, ketotifen/pheniramine experiment (NaCl 276 ± 10)
[7] = 1 min pretreatment, 0.1 wt %, ketotifen/pheniramine experiment (NaCl 276 ± 10)

**Q.** With `c1ccc(CN(CC2=NCCN2)c2ccccc2)cc1` [Antazoline, reference compound] as the molecule, how does the “Wheal Area × Intensity” value ([1]; 1 min pretreatment, 0.0001 wt %, antazoline experiment (NaCl 285 ± 19)) read?
**A.** The value was 244 ± 14.

**Q.** And the “Wheal Area × Intensity” value ([1]; 1 min pretreatment, 0.001 wt %, antazoline experiment (NaCl 285 ± 19))?
**A.** Its value is 178 ± 42.

**Q.** And the “Wheal Area × Intensity” value ([1]; 1 min pretreatment, 0.01 wt %, antazoline experiment (NaCl 285 ± 19))?
**A.** Its value is 115 ± 6.

**Q.** What about the Potency [1, 3] of the same molecule?
**A.** Its Potency is 0.060.

**Q.** What about the “Wheal Area × Intensity (x ± S.D.)” value ([1]; 30 min pretreatment, 0.01 wt %, antazoline experiment (NaCl 287 ± 20)) of the same molecule?
**A.** Its value is 205 ± 61.

**Q.** And the “Wheal Area × Intensity (x ± S.D.)” value ([1]; 30 min pretreatment, 0.1 wt %, antazoline experiment (NaCl 287 ± 20))?
**A.** The value was 145 ± 26.

**Q.** What about the “Wheal Area × Intensity (x ± S.D.)” value ([1]; 30 min pretreatment, 1.0 wt %, antazoline experiment (NaCl 287 ± 20)) of the same molecule?
**A.** The value was 91 ± 27.

**Q.** And the Potency [1, 4]?
**A.** Its Potency is roughly 0.00017.

**Q.** Which results are given for `CN(C)CCC(c1ccc(Br)cc1)c1ccccn1` (stereo not shown) [Brompheniramine, reference compound]?
**A.** Wheal Area × Intensity (X ± S.D.) ([1]; 30 min pretreatment, 0.0001 wt %, brompheniramine experiment (NaCl 219 ± 20)): 167 ± 26; Wheal Area × Intensity (X ± S.D.) ([1]; 30 min pretreatment, 0.001 wt %, brompheniramine experiment (NaCl 219 ± 20)): 92 ± 44; Wheal Area × Intensity (x ± S.D.) ([1]; 30 min pretreatment, 0.01 wt %, brompheniramine experiment (NaCl 219 ± 20)): 5 ± 8; Potency [1, 4]: 0.14 (0.078-0.263)

**Q.** With `CN(C)CCC(c1ccc(Cl)cc1)c1ccccn1` (stereo not shown) [Chlorpheniramine, reference compound] as the molecule, how does the “Wheal Area × Intensity (X ± S.D.)” value ([1]; 30 min pretreatment, 0.0001 wt %, chlorpheniramine experiment (NaCl 217 ± 35)) read?
**A.** The value was 161 ± 57.

**Q.** What about the “Wheal Area × Intensity (X ± S.D.)” value ([1]; 30 min pretreatment, 0.001 wt %, chlorpheniramine experiment (NaCl 217 ± 35)) of the same molecule?
**A.** The value was 76 ± 22.

**Q.** And the “Wheal Area × Intensity (x ± S.D.)” value ([1]; 30 min pretreatment, 0.01 wt %, chlorpheniramine experiment (NaCl 217 ± 35))?
**A.** The value was 9 ± 12.

**Q.** What about the Potency [1, 4] of the same molecule?
**A.** The Potency was 0.13 (0.056-0.295).

**Q.** Which results are given for `CN1CCC[C@@H]1CCO[C@](C)(c1ccccc1)c1ccc(Cl)cc1` [Clemastine, reference compound]?
**A.** Wheal Area × Intensity (X ± S.D.) ([1]; 30 min pretreatment, 0.00001 wt %, clemastine experiment (NaCl 350 ± 31)): 283 ± 37; Wheal Area × Intensity (X ± S.D.) ([1]; 30 min pretreatment, 0.0001 wt %, clemastine experiment (NaCl 350 ± 31)): 131 ± 36; Wheal Area × Intensity (X ± S.D.) ([1]; 30 min pretreatment, 0.001 wt %, clemastine experiment (NaCl 350 ± 31)): 65 ± 28; Wheal Area × Intensity (x ± S.D.) ([1]; 30 min pretreatment, 0.01 wt %, clemastine experiment (NaCl 350 ± 31)): 18 ± 8

**Q.** For `CN1CCC(=C2c3ccccc3CC(=O)c3sccc32)CC1` [Ketotifen, reference compound], which “Wheal Area × Intensity” value ([1]; 1 min pretreatment, 0.0001 wt %, ketotifen/pheniramine experiment (NaCl 276 ± 10)) is on record?
**A.** The value was 210 ± 11.

**Q.** And the “Wheal Area × Intensity” value [1, 5]?
**A.** Its value is 138 ± 21.

**Q.** And the “Wheal Area × Intensity” value [1, 6]?
**A.** The value was 89 ± 22.

**Q.** And the “Wheal Area × Intensity” value [1, 7]?
**A.** Its value is 33 ± 22.

**Q.** And the Potency [1, 3]?
**A.** The Potency was 0.288.

**Q.** What about the “Wheal Area × Intensity (x ± S.D.)” value ([1]; 30 min pretreatment, 0.0000007 wt %, ketotifen experiment (NaCl 214 ± 41)) of the same molecule?
**A.** The value was 157 ± 66.

**Q.** What about the “Wheal Area × Intensity (x ± S.D.)” value ([1]; 30 min pretreatment, 0.000007 wt %, ketotifen experiment (NaCl 214 ± 41)) of the same molecule?
**A.** The value was 108 ± 52.

**Q.** And the “Wheal Area × Intensity (x ± S.D.)” value ([1]; 30 min pretreatment, 0.00007 wt %, ketotifen experiment (NaCl 214 ± 41))?
**A.** The value was 61 ± 26.

**Q.** What about the Potency ([1]; topical, 0.5 h) of the same molecule?
**A.** Its Potency is 3.72 (0.973-11.892).

**Q.** What does the source list for `C[C@@H]1CN([C@H]2CC[C@](C#N)(c3ccc(F)cc3)CC2)CC[C@]1(C(=O)O)c1ccccc1` [Levocabastine, reference compound]?
**A.** clinical activity in patients with allergic conjunctivitis (allergic conjunctivitis): exhibits clinical activity; attenuation of histamine-induced vascular permeability response ([1]; 0.05%, topically 1 minute before histamine injection): failed to attenuate significantly; Wheal Area × Intensity ([1]; 1 min pretreatment, 0.05 wt %, levocabastine experiment (NaCl 336 ± 78)): 231 ± 58; Wheal Area × Intensity (x ± S.D.) ([1]; 30 min pretreatment, 0.0005 wt %, levocabastine/pheniramine experiment (NaCl 252 ± 30)): 189 ± 66; Wheal Area × Intensity (x ± S.D.) ([1]; 30 min pretreatment, 0.005 wt %, levocabastine/pheniramine experiment (NaCl 252 ± 30)): 116 ± 67; Wheal Area × Intensity (x ± S.D.) ([1]; 30 min pretreatment, 0.05 wt %, levocabastine/pheniramine experiment (NaCl 252 ± 30)): 56 ± 41; Potency [1, 4]: 0.01 (0.006-0.038)

**Q.** With `CN(C)CCC(c1ccccc1)c1ccccn1` (stereo not shown) [Pheniramine, reference compound] as the molecule, how does the “Wheal Area × Intensity” value [1, 5] read?
**A.** Its value is 181 ± 16.

**Q.** What about the “Wheal Area × Intensity” value [1, 6] of the same molecule?
**A.** The value was 87 ± 40.

**Q.** And the “Wheal Area × Intensity” value [1, 7]?
**A.** The value was 59 ± 23.

**Q.** And the Potency [1, 3]?
**A.** Its Potency is 0.130.

**Q.** And the “Wheal Area × Intensity (x ± S.D.)” value ([1]; 30 min pretreatment, 0.003 wt %, levocabastine/pheniramine experiment (NaCl 252 ± 30))?
**A.** The value was 175 ± 53.

**Q.** And the “Wheal Area × Intensity (x ± S.D.)” value ([1]; 30 min pretreatment, 0.03 wt %, levocabastine/pheniramine experiment (NaCl 252 ± 30))?
**A.** The value was 122 ± 33.

**Q.** What about the Potency [1, 4] of the same molecule?
**A.** The Potency was roughly 0.0028.

**Q.** With `COc1ccc(CCN2CCC(Nc3nc4ccccc4n3Cc3ccc(F)cc3)CC2)cc1` [astemizole] as the molecule, how does the local ocular activity [2] read?
**A.** The local ocular activity was “greatly reduced local ocular activity”.

**Q.** Which local ocular activity [2] does the source give for `CCOC(=O)N1CCC(=C2c3ccc(Cl)cc3CCc3cccnc32)CC1` [loratadine] here?
**A.** The local ocular activity was “greatly reduced local ocular activity”.

**Q.** With `CC(C)(C)c1ccc(C(O)CCCN2CCC(C(O)(c3ccccc3)c3ccccc3)CC2)cc1` (stereo not shown) [terfenadine] as the molecule, how does the local ocular activity [2] read?
**A.** Its local ocular activity is “little or no local ocular activity”.
